Assays:
Mouse [1] = test: concentration in plasma after dosing; conditions: 2 h; dosed: 2-Hydroxy-4-methoxybenzophenone; 250 mg/kg; oral; Female; B6C3F1
Mouse [2] = test: concentration in plasma after dosing; conditions: 10 min; dosed: 2-Hydroxy-4-methoxybenzophenone; 250 mg/kg; oral; Female; B6C3F1
Mouse [3] = test: concentration in plasma after dosing; conditions: 2.5 min; dosed: 2-Hydroxy-4-methoxybenzophenone; 250 mg/kg; oral; Male; B6C3F1
Mouse [4] = test: concentration in plasma after dosing; conditions: 0.25 h; dosed: 2-Hydroxy-4-methoxybenzophenone; 250 mg/kg; oral; Female; B6C3F1
Mouse [5] = test: concentration in plasma after dosing; conditions: 0.25 h; dosed: 2-Hydroxy-4-methoxybenzophenone; 250 mg/kg; oral; Male; B6C3F1
Mouse [6] = test: concentration in plasma after dosing; conditions: dosed: 2-Hydroxy-4-methoxybenzophenone, B6C3F1
Rat [7] = test: concentration in plasma after dosing; conditions: dosed: 2-Hydroxy-4-methoxybenzophenone, 8 mg/kg, iv, Female, F344
Rat [8] = test: concentration in plasma after dosing; conditions: dosed: 2-Hydroxy-4-methoxybenzophenone, 250 mg/kg, oral, Male, F344
Mouse [9] = test: concentration in plasma after dosing; conditions: 3 h; dosed: 2-Hydroxy-4-methoxybenzophenone; 50 mg/kg; iv; Male; B6C3F1
Rat [10] = test: concentration in plasma after dosing; conditions: 5 min; dosed: Nitrite; 80 mg/kg; oral; Female; F344
Rat [11] = test: concentration in plasma after dosing; conditions: 10 min; dosed: Nitrite; 80 mg/kg; oral; Female; F344
Rat [12] = test: concentration in plasma after dosing; conditions: 2 min; dosed: Nitrite; 80 mg/kg; oral; Female; F344
Rat [13] = test: concentration in liver after dosing; conditions: 6 h; dosed: Fluorotelomer alcohol 8+2; 24 mg/kg; oral; Male; Harlan Sprague Dawley
Rat [14] = test: concentration in liver after dosing; conditions: 1 h; dosed: Fluorotelomer alcohol 8+2; 80 mg/kg; oral; Female; Harlan Sprague Dawley
Rat [15] = test: concentration in liver after dosing; conditions: 1200 h; dosed: Perfluorooctanoic acid; 12 mg/kg; oral; Male; Harlan Sprague Dawley
Rat [16] = test: concentration in kidney after dosing; conditions: 1200 h; dosed: Perfluorooctanoic acid; 12 mg/kg; oral; Male; Harlan Sprague Dawley
Rat [17] = test: concentration in plasma after dosing; conditions: dosed: Fluorotelomer alcohol 8+2, 12 mg/kg, oral, Male, Harlan Sprague Dawley
Rat [18] = test: concentration in kidney after dosing; conditions: 24 h; dosed: Perfluorooctanoic acid; 80 mg/kg; oral; Female; Harlan Sprague Dawley
Rat [19] = test: concentration in plasma after dosing; conditions: dosed: 678-39-7, 40 mg/kg, iv, Male, F344
Rat [20] = test: concentration in plasma after dosing; conditions: 3 h; dosed: Fluorotelomer alcohol 8+2; 12 mg/kg; oral; Male; Harlan Sprague Dawley
Rat [21] = test: concentration in liver after dosing; conditions: 3 h; dosed: Potassium Perfluorobutane Sulfonate; 20 mg/kg; oral; Male; Harlan Sprague Dawley
Rat [22] = test: concentration in kidney after dosing; conditions: 3 h; dosed: Potassium Perfluorobutane Sulfonate; 20 mg/kg; oral; Female; Harlan Sprague Dawley
Rat [23] = test: concentration in kidney after dosing; conditions: 1 h; dosed: Potassium Perfluorobutane Sulfonate; 20 mg/kg; oral; Female; Harlan Sprague Dawley
Rat [24] = test: concentration in plasma after dosing; conditions: dosed: Potassium Perfluorobutane Sulfonate, 4 mg/kg, oral, Male, Harlan Sprague Dawley
rat [25] = test: concentration in plasma after dosing; conditions: dosed: benzo[a]pyrene, 100 ug/m^3, inhalation, duration: 4 hr, F344
rat [26] = test: concentration in blood after dosing; conditions: dosed: methanol, male, CDF(F344)/CrlBR

COc1ccc(C(=O)c2ccccc2)c(O)c1 [2-Hydroxy-4-methoxybenzophenone]
Conditions | concentration in plasma [µg/mL]
Mouse [1] | 0.0556
Mouse [2] | 0.625
Mouse [3] | 0.0182
Mouse [4] | 0.266
Mouse [5] | 0.231
Mouse [9] | 0.175

concentration in plasma [µg/mL], Mouse [6]
Conditions | 0.25 h | 2 h | 2.5 min | 3 h | 10 min
50 mg/kg, iv, Female | 4.57 | 0.259 | – | 0.193 | 9.66
50 mg/kg, iv, Male | 5.62 | 0.279 | – | 0.235 | 11.5
100 mg/kg, oral, Female | 0.103 | 0.0201 | 0.00658 | 0.0118 | 0.0573
100 mg/kg, oral, Male | 0.0622 | 0.0365 | 0.0134 | 0.0193 | 0.0415
250 mg/kg, oral, Female | 0.26 | 0.0458 | 0.022 | 0.264 | 0.165
250 mg/kg, oral, Male | 0.519 | 0.0548 | 0.0157 | 0.0419 | 0.0695
500 mg/kg, oral, Female | 2.95 | 11.5 | – | – | 0.526
500 mg/kg, oral, Male | 0.238 | 0.0731 | – | – | 0.176

concentration in plasma [µg/mL]
Conditions | 0.25 h | 3 h | 4 h | 10 min
Rat [7] | 0.12 | – | 0.0756 | –
Rat [8] | – | 0.0713 | – | 0.0359

O=N[O-] [Nitrite]
Conditions | concentration in plasma [µg/mL]
Rat [10] | 8.2
Rat [11] | 22.9
Rat [12] | 7

O=C(O)C(F)(F)C(F)(F)C(F)(F)C(F)(F)C(F)(F)C(F)(F)C(F)(F)F [Perfluorooctanoic acid]
Conditions | concentration in kidney [ng/g] | concentration in liver [ng/g] | concentration in plasma [ng/mL]
Rat [13] | – | 1450 | –
Rat [14] | – | 601 | –
Rat [15] | – | 7530 | –
Rat [16] | 1110 | – | –
Rat [18] | 14000 | – | –
Rat [20] | – | – | 380

concentration in plasma
Conditions | 0.25 h | 6 h | 48 h | 192 h
Rat [17] | – | – | 614 ng/mL | 399 ng/mL
Rat [19] | 276 µg/mL | 77.7 µg/mL | 0.0319 µg/mL | –

O=S(=O)([O-])C(F)(F)C(F)(F)C(F)(F)C(F)(F)F.[K+] [Potassium Perfluorobutane Sulfonate]
Conditions | concentration in kidney [ng/g] | concentration in liver [ng/g]
Rat [21] | – | 64100
Rat [22] | 10500 | –
Rat [23] | 21100 | –

Rat [24]
Conditions | concentration in plasma [ng/mL]
0.75 h | 14200
12 h | 2550

c1ccc2c(c1)cc1ccc3cccc4ccc2c1c34 [benzo[a]pyrene]
concentration in plasma [µg/mL], rat [25]
Conditions | 0.05 h | 1 h | 2 h | 4 h
female | 0.01 | 0.023 | 0.011 | 0.00107
male | 0.0149 | 0.018 | 0.012 | 0.002

CO [methanol]
rat [26], 200 ppm, inhalation, duration: 6 hr
Conditions | concentration in blood [µg/mL]
0 h | 4.78
0.5 h | 2.95
1 h | 1.99
1.5 h | 3.16
2 h | 2.1
3 h | 0.949
4.5 h | 1.73
6 h | 0.396
8 h | 0.704
10 h | 0.528

rat [26], 100 mg/kg, iv
Conditions | concentration in blood [µg/mL]
0.3747 h | 90.9
0.621 h | 80.5
1.114 h | 70.3
1.606 h | 61.3
2.08 h | 60.6
3.027 h | 39.2
4.505 h | 26.1
6.002 h | 12.2

Reference: EPA's CvTdb concentration-time database
